{"source": "patent US10947237B2", "about": "“Antimicrobial compounds and methods of making and using the same” (BIOVERSYS AG, priority 2015, dated 2021)", "key": {"[1]": {"system": "Staphylococcus aureus (S. aureus) 11540 strain", "assay": "standard microdilution assay, minimum inhibitory concentration (MIC)", "assay_type": "cell-based", "conditions": "Table 2, 11540 strain", "protocol": "(§1) The in vitro activity of the compounds of the present disclosure can be determined. Antimicrobial testing is typically performed to determine the minimum inhibitory concentration (MIC). Minimum inhibitory concentrations (MICs) are determined by the microdilution method in a final volume of 100 μl according to protocols outlined by The Clinical and Laboratory Standards Institute (CLSI). Performance standards for reference strains are assessed within the same experimental design to maintain quality control. See, for example, Clinical Laboratory Standards Institute: Methods for dilution antimicrobial susceptibility tests for bacteria that grow aerobically M7-A8. Approved Standard-Eighth Edition. Wayne, Pa.: CLSI; December 2008; and Clinical Laboratory Standards Institute: Performance Standards for Antimicrobial Susceptibility Testing M100-S20; Approved Standard-Twentieth Edition. Wayne, Pa.: CLSI; June 2010. The compounds of the present disclosure were tested for antimicrobial activity. The Compounds 1-149 were run against Eschericia coli (E. Coli) strain ATCC25922 and against Staphylococcus aureus (S. aureus) 11540 strain using a standard microdilution assay to determine minimum inhibitory concentrations (MICs). […] It will be recognized by one skilled in the art that the compounds can be assessed against other bacterial organisms and that the presentation of data for activity against Eschericia coli and Staphylococcus aureus are illustrative and in no way is intended to limit the scope of the present disclosure. The compounds of the present disclosure can be assayed against a range of other microorganisms depending upon the performance activity desired to be gathered. Furthermore, the “+” and “−” representation and the selection of a cutoff value of 16 micrograms/mL is also illustrative and in no way is intended to limit the scope of the present disclosure."}, "[2]": {"system": "Eschericia coli (E. Coli) strain ATCC25922", "assay": "standard microdilution assay, minimum inhibitory concentration (MIC)", "assay_type": "cell-based", "conditions": "Escherichia coli; Table 2; strain ATCC25922", "protocol": "as §1"}}}
{"smiles": "C[C@H](N)CCCc1cc(Cl)c(F)c(-c2cc3cn(-c4ccc(CN[C@@H](CCN)CCNC(=N)N)cc4)c(=O)nc3[nH]2)c1", "note": "[Compound 57]", "values": [{"measurement": "MIC", "setting": "[1]", "result": "≤ 16", "unit": "µg/mL"}, {"measurement": "MIC", "setting": "[2]", "result": "≤ 16", "unit": "µg/mL"}]}
{"smiles": "C[C@H](N)CCCc1cc(Cl)c(F)c(-c2cc3cn(-c4ccc(CN[C@H](CCNC(=N)N)CNc5ccncc5)cc4)c(=O)nc3[nH]2)c1", "note": "[Compound 58]", "values": [{"measurement": "MIC", "setting": "[1]", "result": "≤ 16", "unit": "µg/mL"}, {"measurement": "MIC", "setting": "[2]", "result": "≤ 16", "unit": "µg/mL"}]}
{"smiles": "C[C@H](N)CCCc1cc(Cl)c(F)c(-c2cc3cn(-c4ccc(CO[C@H](CO)CCNC(=N)N)cc4)c(=O)nc3[nH]2)c1", "note": "[Compound 59]", "values": [{"measurement": "MIC", "setting": "[1]", "result": "≤ 16", "unit": "µg/mL"}, {"measurement": "MIC", "setting": "[2]", "result": "≤ 16", "unit": "µg/mL"}]}
{"smiles": "C[C@H](N)CCCc1cc(Cl)c(F)c(-c2cc3cn(-c4ccc(CO[C@@H](CCNC(=N)N)CNc5nccs5)cc4)c(=O)nc3[nH]2)c1", "note": "[Compound 60]", "values": [{"measurement": "MIC", "setting": "[1]", "result": "≤ 16", "unit": "µg/mL"}, {"measurement": "MIC", "setting": "[2]", "result": "≤ 16", "unit": "µg/mL"}]}
{"smiles": "C[C@H](N)CCCc1cc(Cl)c(F)c(-c2cc3cn(-c4ccc(CN[C@H](CCNC(=N)N)CC(N)=O)cc4)c(=O)nc3[nH]2)c1", "note": "[Compound 61]", "values": [{"measurement": "MIC", "setting": "[1]", "result": "≤ 16", "unit": "µg/mL"}, {"measurement": "MIC", "setting": "[2]", "result": "≤ 16", "unit": "µg/mL"}]}
{"smiles": "C[C@H](N)CCCc1cc(Cl)c(F)c(-c2cc3cn(-c4ccc(CN[C@H](CCNC(=N)N)CNc5ccc[nH]c5=O)cc4)c(=O)nc3[nH]2)c1", "note": "[Compound 62]", "values": [{"measurement": "MIC", "setting": "[1]", "result": "≤ 16", "unit": "µg/mL"}, {"measurement": "MIC", "setting": "[2]", "result": "≤ 16", "unit": "µg/mL"}]}
{"smiles": "COc1ncccc1NC[C@@H](CCNC(=N)N)NCc1ccc(-n2cc3cc(-c4cc(CCC[C@H](C)N)cc(Cl)c4F)[nH]c3nc2=O)cc1", "note": "[Compound 63]", "values": [{"measurement": "MIC", "setting": "[1]", "result": "≤ 16", "unit": "µg/mL"}, {"measurement": "MIC", "setting": "[2]", "result": "≤ 16", "unit": "µg/mL"}]}
{"smiles": "C[C@H](N)CCCc1cc(Cl)c(F)c(-c2cc3cn(-c4ccc(CO[C@H](CCNC(=N)N)CNC(=N)N)cc4)c(=O)nc3[nH]2)c1", "note": "[Compound 64]", "values": [{"measurement": "MIC", "setting": "[1]", "result": "≤ 16", "unit": "µg/mL"}, {"measurement": "MIC", "setting": "[2]", "result": "≤ 16", "unit": "µg/mL"}]}
{"smiles": "Cc1ccncc1NC[C@@H](CCNC(=N)N)NCc1ccc(-n2cc3cc(-c4cc(CCC[C@H](C)N)cc(Cl)c4F)[nH]c3nc2=O)cc1", "note": "[Compound 65]", "values": [{"measurement": "MIC", "setting": "[1]", "result": "≤ 16", "unit": "µg/mL"}, {"measurement": "MIC", "setting": "[2]", "result": "≤ 16", "unit": "µg/mL"}]}
{"smiles": "C[C@H](N)CCCc1cc(Cl)c(F)c(-c2cc3cn(-c4ccc(CO[C@@H](C)CCNC(=N)N)cc4)c(=O)nc3[nH]2)c1", "note": "[Compound 66]", "values": [{"measurement": "MIC", "setting": "[1]", "result": "≤ 16", "unit": "µg/mL"}, {"measurement": "MIC", "setting": "[2]", "result": "≤ 16", "unit": "µg/mL"}]}
{"smiles": "CC(=N)NC[C@@H](CCNC(=N)N)NCc1ccc(-n2cc3cc(-c4cc(CCC[C@H](C)N)cc(Cl)c4F)[nH]c3nc2=O)cc1", "note": "[Compound 67]", "values": [{"measurement": "MIC", "setting": "[1]", "result": "≤ 16", "unit": "µg/mL"}, {"measurement": "MIC", "setting": "[2]", "result": "≤ 16", "unit": "µg/mL"}]}
{"smiles": "C[C@H](N)CCCc1cc(Cl)c(F)c(-c2cc3cn(-c4ccc(CO[C@@H](CN)CCNC(=N)N)cc4)c(=O)nc3[nH]2)c1", "note": "[Compound 68]", "values": [{"measurement": "MIC", "setting": "[1]", "result": "≤ 16", "unit": "µg/mL"}, {"measurement": "MIC", "setting": "[2]", "result": "≤ 16", "unit": "µg/mL"}]}
{"smiles": "C[C@H](N)CCCc1cc(Cl)c(F)c(-c2cc3cn(-c4ccc([C@@H]5CC[C@@H](CNC(=N)N)O5)cc4)c(=O)nc3[nH]2)c1", "note": "[Compound 69]", "values": [{"measurement": "MIC", "setting": "[1]", "result": "≤ 16", "unit": "µg/mL"}, {"measurement": "MIC", "setting": "[2]", "result": "≤ 16", "unit": "µg/mL"}]}
{"smiles": "C[C@H](N)CCCc1cc(Cl)c(F)c(-c2cc3cn(-c4ccc([C@@H]5CC[C@H](CNC(=N)N)O5)cc4)c(=O)nc3[nH]2)c1", "note": "[Compound 70]", "values": [{"measurement": "MIC", "setting": "[1]", "result": "≤ 16", "unit": "µg/mL"}, {"measurement": "MIC", "setting": "[2]", "result": "≤ 16", "unit": "µg/mL"}]}
{"smiles": "C[C@H](N)CCCc1cc(Cl)c(F)c(-c2cc3cn(-c4ccc(CO[C@@H](CO)CCNC(=N)N)cc4)c(=O)nc3[nH]2)c1", "note": "[Compound 71]", "values": [{"measurement": "MIC", "setting": "[1]", "result": "≤ 16", "unit": "µg/mL"}, {"measurement": "MIC", "setting": "[2]", "result": "≤ 16", "unit": "µg/mL"}]}
{"smiles": "CC(=N)NCC[C@H](CO)OCc1ccc(-n2cc3cc(-c4cc(CCC[C@H](C)N)cc(Cl)c4F)[nH]c3nc2=O)cc1", "note": "[Compound 72]", "values": [{"measurement": "MIC", "setting": "[1]", "result": "≤ 16", "unit": "µg/mL"}, {"measurement": "MIC", "setting": "[2]", "result": "≤ 16", "unit": "µg/mL"}]}
{"smiles": "C[C@H](N)CCCc1cc(Cl)c(F)c(-c2cc3cn(-c4ccc([C@H]5CC[C@@H](CCNC(=N)N)O5)cc4)c(=O)nc3[nH]2)c1", "note": "[Compound 73]", "values": [{"measurement": "MIC", "setting": "[1]", "result": "≤ 16", "unit": "µg/mL"}, {"measurement": "MIC", "setting": "[2]", "result": "≤ 16", "unit": "µg/mL"}]}
{"smiles": "C[C@H](N)CCCc1cc(Cl)c(F)c(-c2cc3cn(-c4ccc([C@H]5CC[C@H](CCNC(=N)N)O5)cc4)c(=O)nc3[nH]2)c1", "note": "[Compound 74]", "values": [{"measurement": "MIC", "setting": "[1]", "result": "≤ 16", "unit": "µg/mL"}, {"measurement": "MIC", "setting": "[2]", "result": "≤ 16", "unit": "µg/mL"}]}
{"smiles": "C[C@H](N)CCCc1cc(Cl)c(F)c(-c2cc3cn(-c4ccc(CO[C@H](CCNC(=N)N)CNc5ccccn5)cc4)c(=O)nc3[nH]2)c1", "note": "[Compound 75]", "values": [{"measurement": "MIC", "setting": "[1]", "result": "≤ 16", "unit": "µg/mL"}, {"measurement": "MIC", "setting": "[2]", "result": "≤ 16", "unit": "µg/mL"}]}
{"smiles": "C[C@H](N)CCCc1cc(Cl)c(F)c(-c2cc3cn(-c4ccc(CO[C@H](CCNC(=N)N)CNc5ncc[nH]5)cc4)c(=O)nc3[nH]2)c1", "note": "[Compound 76]", "values": [{"measurement": "MIC", "setting": "[1]", "result": "≤ 16", "unit": "µg/mL"}, {"measurement": "MIC", "setting": "[2]", "result": "≤ 16", "unit": "µg/mL"}]}
